Laboratory results published in ChEMBL document CHEMBL1150731, “Constituents of Tritonia crocosmaeflora, II. Tricrozarin B, an antitumor naphthazarin derivative” (J Nat Prod, 1987).
≈ marks a conversion by molar mass, not a printed value.

Tests used:
[1] = Cytotoxicity against human HeLaS3 cells; type: functional, cell-based; conditions: HeLa S3
CCRF S-180 = assay: Antitumor activity against mouse S180 cells xenografted ICR mouse at 50 mg/kg, ip relative to control; type: functional; conditions: route intraperitoneal

For `COC1=C(OC)C(=O)c2c(O)c(OC)cc(O)c2C1=O` [TRICROZARIN B], the IC50 [1] was 7 ng/mL (≈ 0.025 µM) and the T/C (CCRF S-180) was 146%.
